Assay results from patent US20160311788A1, “Antifouling Compounds And Use Thereof” (National University of Singapore, priority 2008, published 2016).

Columns and labels:
[1] = tested on: marine bacteria strain S16; experiment: disc inhibition assay, strain S16; format: cell-based, Pseudoalteromonas piscicida; settings: Pseudoalteromonas piscicida, S16, 24 h; for zone of inhibition at 10 µg/disc: strain 16, 10 ug
Summary of the method: (§1)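 50 μg compound/6 mm disc (from 2 mg/ml DMSO stock); DMSO blank disc control. Lawn swabbed on Marine Agar from marine broth culture. Overnight, 35° C, dark. Readout: inhibition zone diameter (calipers), mean of 2 replicates.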

[2] = tested on: marine bacteria strain S28; experiment: disc inhibition assay, strain S28; format: cell-based, Arthrobacter protophormial; settings: Arthrobacter, S28, 24 h; for zone of inhibition at 10 µg/disc: strain 28, 10 ug
Summary of the method: as §1

[3] = tested on: marine bacteria strain S29; experiment: disc inhibition assay, strain S29; format: cell-based, Bacillus hwajinpoensis; settings: Guptibacillus hwajinpoensis, S29, 24 h; for zone of inhibition at 10 µg/disc: strain 29, 10 ug
Summary of the method: as §1

[4] = tested on: Escherichia coli (Strain DH5a); experiment: disc inhibition assay, REF 2; format: cell-based
Experimental: (§2) 13 strains of marine bacteria were isolated from fouling communities located in the coastal waters around Singapore. These were characterized in earlier studies and reported in Teo et al. (U.S. patent application Ser. No. 11/265,833) and Choong et al (in prep). In addition, four reference bacterial strains were added tested: Escherichia coli (Strain K12, ATCC 15222), E. coli (strain DH5a), Pseudomonas aeruginosa (strain LMG 12228; ATCC 15692) and P. putida (strain KT2440; ATCC 47054). All the bacteria were also tested against five antibiotics: ampicillin (AMP), tetracycline (TETR), erythromycin (ERY), chloramphenicol (CHL) and streptomycin (STREP).
(§3) Disks comprising the compounds to be tested were prepared as follows. The antibacterial assay, the pure compounds were made up to a concentration of 2 mgml^−1 in DMSO. 25 μl of the stock was pipetted onto each 6 mm sterile disc (Macherey-Nagel #484000) to obtain 50 μg of compound per disc. Equivalent volume of DMSO was used inoculated for the control.
(§4) For all disk inhibition assays, bacterial cultures were grown in marine broth (Pronadisa #1217.00). Sterile swabs dipped into the cultures were used to inoculate Marine Agar plates with a bacterial lawn by smearing the culture over the surface. After inoculating the plates, discs with antibiotics, pharmaceuticals or control blanks were placed on each plate. Each concentration of antibiotic or pharmaceutical was tested with two replicates. After the disks were placed on the agar surface, plates were incubated overnight in the dark at 35° C. After incubation, plates were examined for zones of inhibition or clearing around control and treated disks. The diameter of any zone of clearing or inhibition was measured using Vernier calipers. There were two replicates per treatment, and the average was taken. There was no zone of inhibition around the control blanks in all the assays.

[5] = tested on: marine bacteria strain S1; experiment: disc inhibition assay, strain S1; format: cell-based, Rhodovulum iodosum; settings: Rhodovulum iodosum, S1; for zone of inhibition at 10 µg/disc: strain 1, 10 ug
Summary of the method: as §1

[6] = tested on: Escherichia coli (Strain K12; ATCC 15222); experiment: disc inhibition assay, REF 1; format: cell-based
Experimental: as §2, §3, §4

[7] = tested on: Pseudomonas aeruginosa (strain LMG 12228; ATCC 15692); experiment: disc inhibition assay, REF 3; format: cell-based
Experimental: as §2, §3, §4

[8] = tested on: marine bacteria strain S3; experiment: disc inhibition assay, strain S3; format: cell-based, Erythrobacter aquimaris
Summary of the method: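 Antibacterial susceptibility was measured by agar disc diffusion. Compounds dissolved in DMSO were applied to 6 mm sterile discs and laid on Marine Agar lawns of a Singapore coastal marine bacterium cultured in marine broth. After overnight dark incubation at 35° C, clearing zone diameters were measured with Vernier calipers, and the two replicates were averaged.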

[9] = tested on: marine bacteria strain S27; experiment: disc inhibition assay, strain S27; format: cell-based, Tenacibaculum lutimaris
Summary of the method: as §1

[10] = tested on: marine bacteria strain S10; experiment: disc inhibition assay, strain S10; format: cell-based, Halobacillus trueperi; settings: Halobacillus trueperi, S10, 24 h; for zone of inhibition at 10 µg/disc: strain 10, 10 ug
Summary of the method: as §1

[11] = tested on: Pseudomonas putida (Strain KT2440; BCRC 10459); experiment: disc inhibition assay, REF 4; format: cell-based
Experimental: as §2, §3, §4

[12] = tested on: marine bacteria strain S14; experiment: disc inhibition assay, strain S14; format: cell-based, Vibrio probioticus; settings: Vibrio, S14, 24 h
[13] = tested on: marine bacteria strain S9; experiment: disc inhibition assay, strain S9; format: cell-based, Bacillus algicola; settings: Guptibacillus algicola, S9, 24 h; for zone of inhibition at 10 µg/disc: strain 9, 10 ug
Summary of the method: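 Compounds were dissolved at 2 mg/ml in DMSO (stock) and 50 μg loaded per 6 mm disc, with DMSO-only discs as control. Discs went onto Marine Agar lawns swabbed from marine broth cultures, plates were incubated overnight in the dark at 35° C, and clearing-zone diameter was measured by calipers, averaged over two replicates.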

[14] = tested on: marine bacteria strain S18; experiment: disc inhibition assay, strain S18; format: cell-based, Microbacterium esteraromaticum; settings: Microbacterium esteraromaticum, S18, 24 h; for zone of inhibition at 10 µg/disc: strain 18, 10 ug
[15] = tested on: marine bacteria strain S30; experiment: disc inhibition assay, strain S30; format: cell-based, Bacillus borophilicus; settings: Bacillus, S30, 24 h; for zone of inhibition at 10 µg/disc: strain 30, 10 ug
Summary of the method: as §1

[16] = tested on: marine bacteria strain S17; experiment: disc inhibition assay, strain S17; format: cell-based, Gordonia terrae
Summary of the method: as §1

[17] = tested on: marine bacteria strain S4; experiment: disc inhibition assay, strain S4; format: cell-based, Bacillus algicola; settings: Guptibacillus algicola, S4, 24 h; for zone of inhibition at 10 µg/disc: strain 4, 10 ug
Summary of the method: as §1

## CC1(C)S[C@@H]2[C@H](NC(=O)[C@H](N)c3ccccc3)C(=O)N2[C@H]1C(=O)O [AMP, Ampicillin, reference compound]
[1]; strain 16, 2 ug
  zone of inhibition at 2 µg/disc: 2 to 5 mm
[1]
  zone of inhibition at 10 µg/disc: 2 to 5 mm
[2]; strain 28, 2 ug
  zone of inhibition at 2 µg/disc: 2 to 5 mm
[2]
  zone of inhibition at 10 µg/disc: 5 to 10 mm
[3]; strain 29, 2 ug
  zone of inhibition at 2 µg/disc: > 10 mm
[3]
  zone of inhibition at 10 µg/disc: > 10 mm
[4]; REF 2, 2 ug
  zone of inhibition: −
[4]; REF 2, 10 ug
  zone of inhibition: + (2-5 mm zone of inhibition around each disk was observed.)
[5]; strain 1, 2 ug
  zone of inhibition at 2 µg/disc: 5 to 10 mm
[5]
  zone of inhibition at 10 µg/disc: 5 to 10 mm
[6]; REF 1, 2 ug
  zone of inhibition: −
[6]; REF 1, 10 ug
  zone of inhibition: + (2-5 mm zone of inhibition around each disk was observed.)
[7]; REF 3, 2 ug
  zone of inhibition: −
[7]; REF 3, 10 ug
  zone of inhibition: −
[8]; strain 3, 2 ug
  zone of inhibition: −
[8]; strain 3, 10 ug
  zone of inhibition: −
[9]; Tenacibaculum lutimaris, S27, 24 h, strain 27, 2 ug
  zone of inhibition at 2 µg/disc: 5 to 10 mm
[9]; Tenacibaculum lutimaris, S27, 24 h, strain 27, 10 ug
  zone of inhibition at 10 µg/disc: > 10 mm
[10]; strain 10, 2 ug
  zone of inhibition at 2 µg/disc: > 10 mm
[10]
  zone of inhibition at 10 µg/disc: > 10 mm
[11]; REF 4, 2 ug
  zone of inhibition: −
[11]; REF 4, 10 ug
  zone of inhibition: + (2-5 mm zone of inhibition around each disk was observed.)
[12]
  zone of inhibition at 2 µg/disc: 2 to 5 mm
  zone of inhibition at 10 µg/disc: 2 to 5 mm
[13]; strain 9, 2 ug
  zone of inhibition at 2 µg/disc: 2 to 5 mm
[13]
  zone of inhibition at 10 µg/disc: > 10 mm
[14]; strain 18, 2 ug
  zone of inhibition at 2 µg/disc: 2 to 5 mm
[14]
  zone of inhibition at 10 µg/disc: 5 to 10 mm
[15]; strain 30, 2 ug
  zone of inhibition at 2 µg/disc: > 10 mm
[15]
  zone of inhibition at 10 µg/disc: > 10 mm
[16]; strain 17, 2 ug
  zone of inhibition: −
[16]; strain 17, 10 ug
  zone of inhibition: −
[17]; strain 4, 2 ug
  zone of inhibition at 2 µg/disc: > 10 mm
[17]
  zone of inhibition at 10 µg/disc: > 10 mm

## O=C(N[C@H](CO)[C@H](O)c1ccc([N+](=O)[O-])cc1)C(Cl)Cl [CHL, Chloramphenicol, reference compound]
[1]; strain 16, 30 ug
  zone of inhibition at 30 µg/disc: 5 to 10 mm
[2]; strain 28, 30 ug
  zone of inhibition at 30 µg/disc: > 10 mm
[3]; strain 29, 30 ug
  zone of inhibition at 30 µg/disc: > 10 mm
[4]; REF 2, 30 ug
  zone of inhibition: ++ (5-10 mm zone was observed.)
[5]; strain 1, 30 ug
  zone of inhibition at 30 µg/disc: 5 to 10 mm
[6]; REF 1, 30 ug
  zone of inhibition: ++ (5-10 mm zone was observed.)
[7]; REF 3, 30 ug
  zone of inhibition: ++ (5-10 mm zone was observed.)
[8]; Qipengyuania aquimaris, S3, 24 h, strain 3, 30 ug
  zone of inhibition at 30 µg/disc: > 10 mm
[9]; Tenacibaculum lutimaris, S27, 24 h, strain 27, 30 ug
  zone of inhibition at 30 µg/disc: > 10 mm
[10]; strain 10, 30 ug
  zone of inhibition at 30 µg/disc: > 10 mm
[11]; REF 4, 30 ug
  zone of inhibition: ++ (5-10 mm zone was observed.)
[12]
  zone of inhibition at 30 µg/disc: 5 to 10 mm
[13]; strain 9, 30 ug
  zone of inhibition at 30 µg/disc: > 10 mm
[14]; strain 18, 30 ug
  zone of inhibition at 30 µg/disc: 5 to 10 mm
[15]; strain 30, 30 ug
  zone of inhibition at 30 µg/disc: 5 to 10 mm
[16]; Gordonia terrae, S17, 24 h, strain 17, 30 ug
  zone of inhibition at 30 µg/disc: > 10 mm
[17]; strain 4, 30 ug
  zone of inhibition at 30 µg/disc: > 10 mm

## [H]/N=C(/N)N[C@H]1[C@H](O)[C@@H](O)[C@H](O[C@@H]2O[C@@H](C)[C@](O)(C=O)[C@H]2O[C@@H]2O[C@@H](CO)[C@H](O)[C@@H](O)[C@@H]2NC)[C@@H](N/C(N)=N\[H])[C@@H]1O [STREP, Streptomycin, reference compound]
[1]
  zone of inhibition at 10 µg/disc: 2 to 5 mm
[1]; strain 16, 25 ug
  zone of inhibition at 25 µg/disc: 5 to 10 mm
[2]
  zone of inhibition at 10 µg/disc: 2 to 5 mm
[2]; strain 28, 25 ug
  zone of inhibition at 25 µg/disc: 5 to 10 mm
[3]
  zone of inhibition at 10 µg/disc: 2 to 5 mm
[3]; strain 29, 25 ug
  zone of inhibition at 25 µg/disc: 5 to 10 mm
[4]; REF 2, 10 ug
  zone of inhibition: −
[4]; REF 2, 25 ug
  zone of inhibition: −
[5]
  zone of inhibition at 10 µg/disc: 5 to 10 mm
[5]; strain 1, 25 ug
  zone of inhibition at 25 µg/disc: > 10 mm
[6]; REF 1, 10 ug
  zone of inhibition: + (2-5 mm zone of inhibition around each disk was observed.)
[6]; REF 1, 25 ug
  zone of inhibition: ++ (5-10 mm zone was observed.)
[7]; REF 3, 10 ug
  zone of inhibition: + (2-5 mm zone of inhibition around each disk was observed.)
[7]; REF 3, 25 ug
  zone of inhibition: ++ (5-10 mm zone was observed.)
[8]; strain 3, 10 ug
  zone of inhibition: −
[8]; strain 3, 25 ug
  zone of inhibition: −
[9]; strain 27, 10 ug
  zone of inhibition: −
[9]; strain 27, 25 ug
  zone of inhibition: −
[10]
  zone of inhibition at 10 µg/disc: 2 to 5 mm
[10]; strain 10, 25 ug
  zone of inhibition at 25 µg/disc: 2 to 5 mm
[11]; REF 4, 10 ug
  zone of inhibition: + (2-5 mm zone of inhibition around each disk was observed.)
[11]; REF 4, 25 ug
  zone of inhibition: ++ (5-10 mm zone was observed.)
[12]
  zone of inhibition at 10 µg/disc: 2 to 5 mm
  zone of inhibition at 25 µg/disc: 2 to 5 mm
[13]
  zone of inhibition at 10 µg/disc: 2 to 5 mm
[13]; strain 9, 25 ug
  zone of inhibition at 25 µg/disc: 2 to 5 mm
[14]
  zone of inhibition at 10 µg/disc: 2 to 5 mm
[14]; strain 18, 25 ug
  zone of inhibition at 25 µg/disc: 5 to 10 mm
[15]
  zone of inhibition at 10 µg/disc: 2 to 5 mm
[15]; strain 30, 25 ug
  zone of inhibition at 25 µg/disc: 5 to 10 mm
[16]; Gordonia terrae, S17, 24 h, strain 17, 10 ug
  zone of inhibition at 10 µg/disc: 2 to 5 mm
[16]; Gordonia terrae, S17, 24 h, strain 17, 25 ug
  zone of inhibition at 25 µg/disc: 5 to 10 mm
[17]
  zone of inhibition at 10 µg/disc: 2 to 5 mm
[17]; strain 4, 25 ug
  zone of inhibition at 25 µg/disc: 5 to 10 mm
